The record followed here is patent publication US9763445B2, “Safened herbicidal compositions comprising a pyridine carboxylic acid herbicide” (Dow AgroSciences, LLC, priority 2014, dated 2017).

Structures are written as SMILES.

One data set relates to spring barley (HORVS). Kind of data set: Postemergence greenhouse trial, % visual injury on spring barley. The format is in vivo, Hordeum vulgare. The note with it: HORVS. The method, then:
(§1) Seeds of the desired test plant species were planted in Sun Gro MetroMix® 306 planting mixture, which typically has a pH of 6.0 to 6.8 and an organic matter content of about 30 percent, in plastic pots with a surface area of 103.2 square centimeters (cm^2). When required to ensure good germination and healthy plants, a fungicide treatment and/or other chemical or physical treatment was applied. The plants were grown for 7-36 days (d) in a greenhouse with an approximate 14-hour (h) photoperiod which was maintained at about 23° C. during the day and 22° C. during the night. Nutrients and water were added on a regular basis and supplemental lighting was provided with overhead metal halide 1000-Watt lamps as necessary. The plants were employed for testing when they reached the second or third true leaf stage.
(§2) Weighed amounts of technical material were dissolved in a volume of 97:3 volume per volume (v/v) acetone/dimethyl sulfoxide (DMSO) to stock solutions. […] The concentrated stock solutions were diluted with an aqueous mixture of 1.5% v/v of Agri-dex crop oil concentrate to provide the appropriate application rates. Compound requirements are based upon a 12 milliliter (mL) application volume at a rate of 187 liters per hectare (L/ha). Stocks solutions of the safeners were prepared following the same procedure. Spray solutions of the safeners and experimental compound mixtures were prepared by adding the stock solutions to the appropriate amount of dilution solution to form a 12 mL spray solution in two-way combinations. Formulated compounds were applied to the plant material with an overhead Mandel track sprayer equipped with 8002E nozzles calibrated to deliver 187 L/ha over an application area of 0.503 square meters (m^2) at a spray height of 18 inches (43 centimeters (cm)) above average plant canopy. Control plants were sprayed in the same manner with the solvent blank. All herbicide application (component a) rates are in g ae/ha and all safener (component b) rates are in g ai/ha.
(§3) The treated plants and control plants were placed in a greenhouse as described above and watered by sub-irrigation to prevent wash-off of the test compounds. After 20-22 d, the condition of the test plants as compared with that of the control plants was determined visually and scored on a scale of 0 to 100 percent where 0 corresponds to no injury and 100 corresponds to complete kill. The condition of the test plants was compared with that of the control plants as determined visually and scored on a scale of 0 to 100 percent, where 0 corresponds to no injury and 100 corresponds to complete kill. Colby's equation was used to determine the herbicidal effects expected from the mixtures.
(§4) The safener cloquintocet-mexyl was combined with compound 1, compound 2, compound 3, compound 7, compound 8, compound 9, compound 10, compound 11, compound 12, compound 13, compound 14, compound 15, compound 16, compound 17, compound 18, compound 19, and compound 20, and applied to spring wheat (TRZAS), winter wheat (TRZAW), and spring barley (HORVS) and the phytotoxicity of the herbicidal compositions was measured. […]

In another data set the test system is spring wheat (TRZAS). Nature of the data set: Postemergence greenhouse trial, % visual injury on spring wheat. The format is in vivo, Triticum aestivum. Conditions: TRZAS. The procedure: as §1, §2, §3
(§5) The safener cloquintocet-mexyl was combined with compound 1, compound 2, compound 4, compound 5, and compound 6, and applied to corn/maize (ZEAMX) and spring wheat (TRZAS) and the phytotoxicity of the herbicidal compositions was measured. In addition, the efficacy of the herbicidal composition on velvetleaf (ABUTH, Abutilon theophrasti), pigweed (AMARE, Amaranthus retroflexus), winter rape (BRSNW, Brassica napus), lambsquarters (CHEAL, Chenopodium album), thistle (CIRAR, Cirsium arvense), nutsedge (CYPES, Cyperus esculentus), poinsettia (EPHHL, Euphorbia heterophylla), wild buckwheat (POLCO, Polygonum convolvulus), giant foxtail (SETFA, Setaria faberi), and chickweed (STEME, Stellaria media) was evaluated.
as §4

In another data set the test system is Russian thistle (SASKR). Kind of data set: Postemergence greenhouse trial, % visual injury on Russian thistle. The format is in vivo, Salsola kali. The note with it: SASKR, CQC-m 0 g/ha.
A further data set relates to cleavers (GALAP). Nature of the data set: Postemergence greenhouse trial, % visual injury on cleavers. The format is in vivo, Galium aparine. The note with it: CQC-m 0 g/ha. The method, then:
as §1, §2, §3, §4

The subject of another data set is pigweed (AMARE). Nature of the data set: Postemergence greenhouse trial, % visual injury on pigweed. It counts as in vivo, Amaranthus retroflexus. Conditions: AMARE, CQC-m 0 g/ha. The procedure: as §1, §2, §3
as §5, with “evaluated. […]” for “evaluated.”
The safener cloquintocet-acid and a number of agriculturally acceptable esters and salts (-mexyl, -dimethylammonium salt and -triethylammonium salt) were combined in varying ratios with compound 1 and applied to spring wheat (TRZAS), winter wheat (TRZAW), and spring barley (HORVS), and the phytotoxicity of the herbicidal compositions was measured. […]

The test system of another data set is kochia (KCHSC). Kind of data set: Postemergence greenhouse trial, % visual injury on kochia. It counts as in vivo, Kochia scoparia. Conditions: Bassia scoparia, post-emergence, KCHSC, CQC-m 0, read-out: % visual injury, Ob. The method, then: as §1, §2
as §3, with “mixtures. […]” for “mixtures.”

For another data set, the system named is winter rape (BRSNW). Nature of the data set: Postemergence greenhouse trial, % visual injury on winter rape. The note with it: Brassica napus, post-emergence, BRSNW, CQC-m 0, read-out: % visual injury, Ob. It counts as in vivo, Brassica napus. The method, then:
as §1, §2, §3
as §5, with “evaluated. […]” for “evaluated.”

The subject of another data set is prickly lettuce (LACSE). Kind of data set: Postemergence greenhouse trial, % visual injury on prickly lettuce. Conditions: LACSE, CQC-m 0. It counts as in vivo, Lactuca serriola. The procedure:
as §1, §2
as §3, with “mixtures. […]” for “mixtures.”

For another data set, the system named is wild mustard (SINAR). Kind of data set: Postemergence greenhouse trial, % visual injury on wild mustard. Conditions: Brassica, post-emergence, SINAR, CQC-m 0, read-out: % visual injury, Ob. The format is in vivo, Sinapis arvensis. The method, then:
as §1, §2
as §3, with “mixtures. […]” for “mixtures.”

The test system of data set [1] is bird's-eye speedwell (VERPE). Nature of the data set: Postemergence greenhouse trial, % visual injury on bird's-eye speedwell. It counts as in vivo, Veronica persica. Conditions: VERPE, CQC-m 0. The procedure:
as §1, §2
as §3, with “mixtures. […]” for “mixtures.”

The mark [2] stands for this setting: compound 4.380 g/ha, CQC-m 0 g/ha.
Where [3] appears, read: compound 8.75 g/ha, CQC-m 0 g/ha.
The mark [4] stands for this setting: compound 17.5 g/ha, CQC-m 0 g/ha.

On to `C=Cc1c(C(=O)OC)nc(-c2ccc3cc[nH]c3c2F)c(F)c1N` [compound 14], for which the “% visual injury, Ob” value in the data set with spring barley (HORVS) (setting [2]) stood at 0%; in the data set on spring barley (HORVS) (setting [3]) it was 0%; with spring barley (HORVS) (setting [4]), 10%; in the data set with spring barley (HORVS) (compound 35 g/ha, CQC-m 0 g/ha), 20%; with spring barley (HORVS) (compound 70 g/ha, CQC-m 0 g/ha) it was 40%; in the data set on spring wheat (TRZAS) (setting [2]), 0%. The “% visual injury, Ob” value in the data set with spring wheat (TRZAS) (setting [3]) is 0%; with spring wheat (TRZAS) (setting [4]), 0%; in the data set with spring wheat (TRZAS) (compound 35 g/ha, CQC-m 0 g/ha), 10%; in the data set with spring wheat (TRZAS) (compound 70 g/ha, CQC-m 0 g/ha) it was 30%; in the data set on Russian thistle (SASKR) (compound 4.380 g/ha), 0%; in the data set on Russian thistle (SASKR) (compound 8.75 g/ha), 10%. Moreover, the “% visual injury, Ob” value in the data set with Russian thistle (SASKR) (compound 17.5 g/ha) was 50%; in the data set on Russian thistle (SASKR) (compound 35 g/ha), 60%; with Russian thistle (SASKR) (compound 70 g/ha) it was 70%; with cleavers (GALAP) (compound 4.380 g/ha), 10%; in the data set on cleavers (GALAP) (compound 8.75 g/ha) it was 10%; in the data set with cleavers (GALAP) (compound 17.5 g/ha), 20%. Moreover, the “% visual injury, Ob” value was 30% in the data set on cleavers (GALAP) (compound 35 g/ha); 60% in the data set on cleavers (GALAP) (compound 70 g/ha); 10% in the data set with pigweed (AMARE) (compound 4.380 g/ha); 10% with pigweed (AMARE) (compound 8.75 g/ha); 20% in the data set on pigweed (AMARE) (compound 17.5 g/ha).
Regarding `COC(=O)c1nc(-c2ccc3cc[nH]c3c2F)c(F)c(/N=C/N(C)C)c1Cl` [compound 11], the “% visual injury, Ob” value in the data set with spring barley (HORVS) (compound 17.5 g/ha, CQC-m 0) is recorded as 10%; in the data set on spring barley (HORVS) (compound 35 g/ha, CQC-m 0), 20%; in the data set with spring barley (HORVS) (compound 70 g/ha, CQC-m 0) it was 40%; in the data set with spring wheat (TRZAS) (compound 17.5 g/ha, CQC-m 0), 10%; in the data set with spring wheat (TRZAS) (compound 35 g/ha, CQC-m 0), 20%; with spring wheat (TRZAS) (compound 70 g/ha, CQC-m 0) it was 40%. For the same compound, the “% visual injury, Ob” value with prickly lettuce (LACSE) (compound 17.5 g/ha) turned out to be 0%; in the data set on prickly lettuce (LACSE) (compound 35 g/ha), 10%; in the data set with prickly lettuce (LACSE) (compound 70 g/ha) it was 40%; in data set [1] (compound 17.5 g/ha), 85%; in [1] (compound 35 g/ha), 90%; in data set [1] (compound 70 g/ha), 95%. The pest or weed control at 17.5 g/ha in the data set with kochia (KCHSC) (compound 17.5 g/ha) was determined as 70%; with wild mustard (SINAR) (compound 17.5 g/ha) it was 95%. Also, the figures for the pest or weed control at 35 g/ha with kochia (KCHSC) (compound 35 g/ha) and with wild mustard (SINAR) (compound 35 g/ha) were 90% and 100%, respectively. Also, the values for the pest or weed control at 70 g/ha in the data set on kochia (KCHSC) (compound 70 g/ha) and with wild mustard (SINAR) (compound 70 g/ha) were 90% and 100%, respectively. In addition, in the data set with winter rape (BRSNW) (compound 17.5 g/ha), the plant injury at 17.5 g/ha was determined as 95%. Also, the plant injury at 35 g/ha with winter rape (BRSNW) (compound 35 g/ha) was 100%. For the same compound, the plant injury at 70 g/ha in the data set on winter rape (BRSNW) (compound 70 g/ha) worked out at 100%.
